Measurements: ChEMBL document CHEMBL4808217, “Design, Synthesis, and Characterization of 4-Aminoquinazolines as Potent Inhibitors of the G Protein-Coupled Receptor Kinase 6 (GRK6) for the Treatment of Multiple Myeloma” (J Med Chem, 2021)

Experiments:
[1] = target: T1, G protein-coupled receptor kinase 6 (Homo sapiens, UniProt P43250); assay: Inhibition of recombinant full-length human GRK6 using casein as substrate measured after 80 mins in presence of [gamma33P]ATP by radiometric scintillation counting method
T1 sequence (P43250 whole entry): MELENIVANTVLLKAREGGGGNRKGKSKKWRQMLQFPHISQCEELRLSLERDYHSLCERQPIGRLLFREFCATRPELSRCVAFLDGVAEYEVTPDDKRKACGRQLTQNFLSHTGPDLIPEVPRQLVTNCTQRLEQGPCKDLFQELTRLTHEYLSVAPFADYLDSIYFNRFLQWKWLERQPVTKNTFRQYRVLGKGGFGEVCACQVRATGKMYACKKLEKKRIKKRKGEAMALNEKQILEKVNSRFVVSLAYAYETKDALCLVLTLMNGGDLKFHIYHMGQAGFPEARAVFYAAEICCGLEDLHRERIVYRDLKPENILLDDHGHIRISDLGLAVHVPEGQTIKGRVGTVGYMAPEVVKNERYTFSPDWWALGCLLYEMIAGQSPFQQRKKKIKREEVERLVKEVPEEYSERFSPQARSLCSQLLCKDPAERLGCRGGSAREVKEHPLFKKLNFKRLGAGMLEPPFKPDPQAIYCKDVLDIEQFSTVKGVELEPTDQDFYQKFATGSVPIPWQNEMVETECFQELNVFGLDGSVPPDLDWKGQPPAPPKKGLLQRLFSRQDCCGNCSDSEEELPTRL

Aurora kinase A = target: T2, Aurora kinase A (Homo sapiens, UniProt O14965); assay: Inhibition of recombinant full length human Aurora A using LRRASLG as substrate incubated for 40 mins in presence of [gamma-33ATP] by radiometric scintillation counting method
T2 sequence (O14965 whole entry): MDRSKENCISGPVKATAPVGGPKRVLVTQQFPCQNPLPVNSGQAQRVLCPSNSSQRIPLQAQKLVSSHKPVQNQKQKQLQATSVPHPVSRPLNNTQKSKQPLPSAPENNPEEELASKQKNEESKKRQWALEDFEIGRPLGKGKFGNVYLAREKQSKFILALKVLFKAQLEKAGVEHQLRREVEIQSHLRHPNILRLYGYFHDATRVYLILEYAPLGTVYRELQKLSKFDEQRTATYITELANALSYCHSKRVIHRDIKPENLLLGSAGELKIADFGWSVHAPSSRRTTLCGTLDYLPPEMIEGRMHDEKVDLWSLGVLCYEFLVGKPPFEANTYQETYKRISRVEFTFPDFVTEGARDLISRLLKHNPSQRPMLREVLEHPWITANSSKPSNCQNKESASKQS

[2] = target: Insulin-like growth factor 1 receptor (Homo sapiens, UniProt P08069); assay: Inhibition of recombinant human IGF-1R (959 to end residues) using KKKSPGEYVNIEF as substrate incubated for 40 mins in presence of [gamma-33ATP] by radiometric scintillation counting method
Sequence of Insulin-like growth factor 1 receptor (P08069 31-736 limits assumed): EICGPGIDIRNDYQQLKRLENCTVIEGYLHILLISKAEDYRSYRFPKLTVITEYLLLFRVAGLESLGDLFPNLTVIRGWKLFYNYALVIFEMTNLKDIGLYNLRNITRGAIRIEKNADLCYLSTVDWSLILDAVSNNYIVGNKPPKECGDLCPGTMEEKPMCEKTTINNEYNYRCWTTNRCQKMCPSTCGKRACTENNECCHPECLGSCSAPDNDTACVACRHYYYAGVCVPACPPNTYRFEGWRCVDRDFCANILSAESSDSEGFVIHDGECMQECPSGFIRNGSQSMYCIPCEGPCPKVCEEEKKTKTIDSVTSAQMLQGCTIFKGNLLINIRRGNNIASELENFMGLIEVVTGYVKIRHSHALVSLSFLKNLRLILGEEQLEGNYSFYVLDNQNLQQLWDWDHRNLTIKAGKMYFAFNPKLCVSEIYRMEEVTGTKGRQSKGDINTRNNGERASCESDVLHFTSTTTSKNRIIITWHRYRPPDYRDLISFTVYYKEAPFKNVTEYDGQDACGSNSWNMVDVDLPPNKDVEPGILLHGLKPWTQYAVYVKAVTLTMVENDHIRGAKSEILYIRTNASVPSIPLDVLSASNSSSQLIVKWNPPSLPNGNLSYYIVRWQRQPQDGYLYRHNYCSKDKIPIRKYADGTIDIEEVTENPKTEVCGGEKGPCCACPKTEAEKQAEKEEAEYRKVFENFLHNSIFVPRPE
Sequence of Insulin-like growth factor 1 receptor (P08069 741-1367 limits assumed): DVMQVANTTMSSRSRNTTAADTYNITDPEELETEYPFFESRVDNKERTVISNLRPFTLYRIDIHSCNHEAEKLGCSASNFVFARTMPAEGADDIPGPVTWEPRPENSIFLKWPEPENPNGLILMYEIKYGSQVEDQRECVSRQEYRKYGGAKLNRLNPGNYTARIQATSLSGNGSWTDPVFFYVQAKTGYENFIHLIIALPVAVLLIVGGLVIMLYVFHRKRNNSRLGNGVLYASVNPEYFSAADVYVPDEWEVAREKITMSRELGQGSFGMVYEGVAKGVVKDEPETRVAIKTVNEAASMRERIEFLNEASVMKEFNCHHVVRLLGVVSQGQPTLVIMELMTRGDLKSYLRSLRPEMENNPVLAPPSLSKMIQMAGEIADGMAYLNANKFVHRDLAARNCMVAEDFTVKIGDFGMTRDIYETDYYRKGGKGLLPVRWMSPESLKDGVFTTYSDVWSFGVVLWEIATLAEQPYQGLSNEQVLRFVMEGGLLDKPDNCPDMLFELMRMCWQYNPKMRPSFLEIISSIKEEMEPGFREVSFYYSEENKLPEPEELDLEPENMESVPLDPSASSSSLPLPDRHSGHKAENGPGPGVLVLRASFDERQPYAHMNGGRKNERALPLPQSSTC

[3] = target: T1, G protein-coupled receptor kinase 6; assay: Binding affinity to FLAG-tagged GRK6 in human KMS11 cells incubated for […] by ITDR assay; format: cell-based, KMS-11

| SMILES | IC50 [1] | IC50 (Aurora kinase A) | IC50 [2] | IC50 [3] |
| --- | --- | --- | --- | --- |
| CCc1cc(Nc2nc(N[C@@H](C)c3ccc(Cl)cn3)nc3cccc(OC)c23)n[nH]1 | 0.0035 µM | 22 µM | – | – |
| CCc1cc(Nc2nc(NC3(c4ccc(Cl)cc4)CC3)nc3ccccc23)n[nH]1 | 0.28 µM | – | – | – |
| CCc1cc(Nc2nc(N[C@@H](C)c3ccc(C)cc3)nc3cccc(F)c23)n[nH]1 | 0.027 µM | 0.075 µM | – | – |
| CCc1cc(Nc2nc(NCCN3CCOCC3)nc3cccc(F)c23)n[nH]1 | 1.4 µM | – | – | – |
| CCc1cc(Nc2nc(NCc3ccc(Cl)cc3OC)nc3cccc(C)c23)n[nH]1 | 0.006 µM | 1.2 µM | – | 0.17 µM |
| CCc1cc(Nc2nc(NCc3ccc(Cl)cc3)nc3cccc(C)c23)n[nH]1 | 0.027 µM | 1.2 µM | > 10 µM | – |
| CCc1cc(Nc2nc(N[C@@H](C)c3ccc(F)cc3)nc3cc(F)ccc23)n[nH]1 | 0.1 µM | – | – | – |
| CCc1cc(Nc2nc(N[C@@H](C)c3ccc(F)cc3)nc3ccc(F)cc23)n[nH]1 | 0.16 µM | – | – | – |
| CCc1cc(Nc2nc(N[C@@H](C)c3ncc(F)cn3)nc3cccc(F)c23)n[nH]1 | 0.23 µM | 0.08 µM | – | – |
| CCc1cc(Nc2nc(NCc3ccc(Cl)cc3)nc3cccc(OC)c23)n[nH]1 | 0.016 µM | > 10 µM | > 10 µM | 2 µM |
| CCc1cc(Nc2nc(N[C@@H](C)c3ccc(Cl)cc3)nc3ccccc23)n[nH]1 | 0.07 µM | – | – | – |
| CCOc1ccc(Nc2nc(N[C@@H](C)c3ccc(F)cn3)nc3cccc(F)c23)cn1 | > 10 µM | – | – | – |
| CCn1cnc(Nc2nc(N[C@@H](C)c3ccc(F)cn3)nc3cccc(F)c23)c1 | 0.28 µM | – | – | – |
| CCc1cc(Nc2nc(N[C@@H](C)c3ccc(F)cn3)nc3cccc(F)c23)n[nH]1 | 0.029 µM | 0.025 µM | – | – |
| CCc1cc(Nc2nc(N[C@@H](C)c3ccc(F)cc3)nc3cccc(F)c23)n[nH]1 | 0.041 µM | 0.051 µM | – | – |
| CCc1cc(Nc2nc(N[C@@H](C)c3ccc(F)cc3)nc3ccc(OC)cc23)n[nH]1 | 0.14 µM | – | – | – |
| CCc1cc(Nc2nc(N[C@@H](C)c3ccc(C#N)cn3)nc3cccc(F)c23)n[nH]1 | 0.091 µM | 0.22 µM | – | – |
| CCc1cc(Nc2nc(NCc3ccc(Cl)cc3OC)nc3ccccc23)n[nH]1 | 0.04 µM | – | – | – |
| CCc1cc(Nc2nc(N[C@@H](C)c3ccc(F)cc3)nc3cc(Cl)ccc23)n[nH]1 | 0.44 µM | – | – | – |
| CCc1cc(Nc2nc(N[C@@H](C)c3ccc(F)cn3)nc3cccc(C)c23)n[nH]1 | 0.011 µM | 0.33 µM | – | 0.61 µM |
| CCc1cc(Nc2nc(N[C@@H](C)c3cccc(F)c3)nc3ccccc23)n[nH]1 | 0.34 µM | – | – | – |
| Fc1cccc2nc(NCCc3ccccc3)nc(Nc3ccon3)c12 | > 10 µM | – | – | – |
| Fc1cccc2nc(NCCc3ccccc3)nc(Nc3cc[nH]n3)c12 | 2.5 µM | – | – | – |
| CCc1cc(Nc2nc(N[C@@H](C)C3CCCCC3)nc3ccccc23)n[nH]1 | 0.96 µM | – | – | – |
| CCc1cc(Nc2nc(N[C@@H](C)c3ccc(OC)cc3)nc3ccccc23)n[nH]1 | 0.29 µM | – | – | – |

The remaining lines, values ahead:

| IC50 [1] | IC50 (Aurora kinase A) | IC50 [2] | IC50 [3] | SMILES |
| --- | --- | --- | --- | --- |
| 0.02 µM | – | – | – | CCc1cc(Nc2nc(NCCc3ccccc3)nc3cccc(F)c23)n[nH]1 |
| 0.01 µM | > 10 µM | > 10 µM | – | CCc1cc(Nc2nc(NCCc3ccccc3)nc3cccc(OC)c23)n[nH]1 |
| 0.11 µM | 0.18 µM | – | – | CCc1cc(Nc2nc(NCCc3ccc(F)cc3)nc3cccc(F)c23)n[nH]1 |
| 1.1 µM | – | – | – | CCc1cc(Nc2nc(NCCc3ccc(F)cc3)nc3cc(Cl)ccc23)n[nH]1 |
| 0.12 µM | 0.011 µM | – | – | CCc1cc(Nc2nc(N[C@@H](C)c3ccc(F)cc3)nc3ccccc23)n[nH]1 |
| 0.31 µM | – | – | – | CCc1cc(Nc2nc(NCCc3ccc(F)cc3)nc3ccc(F)cc23)n[nH]1 |
| 0.25 µM | – | – | – | CCc1cc(Nc2nc(NCc3ccc(F)cc3)nc3ccccc23)n[nH]1 |
| 0.18 µM | – | – | – | CCc1cc(Nc2nc(NCCc3ccc(F)cc3)nc3cc(F)ccc23)n[nH]1 |
| 0.19 µM | 0.041 µM | – | – | CCc1cc(Nc2nc(NCCc3ccc(F)cc3)nc3ccccc23)n[nH]1 |
| 0.46 µM | – | – | – | CCc1cc(Nc2nc(NCCc3ccc(F)cc3)nc3ccc(OC)cc23)n[nH]1 |
| 1.4 µM | – | – | – | CCc1cc(Nc2nc(N[C@H](C)c3ccc(F)cc3)nc3ccccc23)n[nH]1 |
